According to patent US20060069132A1, “Azolecarboxamide herbicides” (priority 2004, published 2006):

Columns and labels:
Surinam grass = test: Test B pre-/postemergence herbicide test; assay type: in vivo, Urochloa decumbens
How it was run: (§1)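 Plants compared with untreated controls 13–15 days post-treatment and given a visual 0–100 injury score. Applications: preemergence to seeds; postemergence at 1- to 4-leaf (2–18 cm); paddy species flooded, 2-leaf stage. Vehicle non-phytotoxic, surfactant included.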

cocklebur = test: Test B pre-/postemergence herbicide test; assay type: in vivo, Xanthium strumarium
How it was run: as §1

corn = test: Test B pre-/postemergence herbicide test; assay type: in vivo, Zea mays
How it was run: as §1

giant foxtail = test: Test B pre-/postemergence herbicide test; assay type: in vivo, Setaria faberi
How it was run: as §1

lambsquarters = test: Test B pre-/postemergence herbicide test; assay type: in vivo, Chenopodium album
How it was run: as §1

morningglory = test: Test B pre-/postemergence herbicide test; assay type: in vivo, Ipomoea coccinea
How it was run: as §1

pigweed = test: Test B pre-/postemergence herbicide test; assay type: in vivo, Amaranthus retroflexus
How it was run: as §1

velvetleaf = test: Test B pre-/postemergence herbicide test; assay type: in vivo, Abutilon theophrasti
How it was run: as §1

blackgrass = test: Test B postemergence herbicide test; assay type: in vivo, Alopecurus myosuroides
How it was run: (§2)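 Formulated test chemicals went onto postemergence plants measuring 2 to 18 cm, at one to four leaves. For the paddy assay, species had reached two leaves. Scoring took place 13–15 days later by eye, relative to untreated plants, using 0 for no effect up to 100 for full control.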

wheat = test: Test B postemergence herbicide test; assay type: in vivo, Triticum aestivum; set-up: key to Wheat plant response rating: 0 = no effect, 100 = complete control
How it was run: (§3)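 Plants grow to 1- to 4-leaf stage (2–18 cm) for postemergence spraying, or to 2-leaf stage for the paddy test. Formulated compound is applied. Greenhouse holding lasts 13–15 days. Response is scored visually relative to controls, 0 no effect to 100 complete control; a dash means no result.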

wild oat = test: Test B postemergence herbicide test; assay type: in vivo, Avena fatua
How it was run: as §3

rice = test: Test B flooded paddy test; assay type: in vivo, Oryza sativa; details: 1000 g ai/ha, scale 0 to 100 (0 no effect, 100 complete control)
How it was run: as §2

[1] = test system: small flower umbrella sedge; test: Test B flooded paddy test; assay type: in vivo, Cyperus difformis; details: 1000 g ai/ha, scale 0 to 100 (0 no effect, 100 complete control)
How it was run: as §2

ducksalad = test: Test B flooded paddy test; assay type: in vivo, Heteranthera limosa; details: 1000 g ai/ha, scale 0 to 100 (0 no effect, 100 complete control)
How it was run: as §2

barnyardgrass = test: Test B flooded paddy test; assay type: in vivo, Echinochloa crus-galli; details: 1000 g ai/ha, scale 0 to 100 (0 no effect, 100 complete control)
How it was run: as §2

[2] = Postemergence, 500 g ai/ha, visual rating after 13 to 15 days, scale 0 (no effect) to 100 (complete control)
[3] = Preemergence, 500 g ai/ha, scale 0 to 100
[4] = preemergence, 125 g ai/ha, 0 to 100 scale, 0 is no effect, 100 is complete control
[5] = Postemergence, 125 g ai/ha, scale 0 (no effect) to 100 (complete control)
[6] = 500 g ai/ha, visual rating 0-100, 0 no effect, 100 complete control, preemergence
[7] = postemergence, 125 g ai/ha, visual rating, scale 0 (no effect) to 100 (complete control)
[8] = postemergence, 500 g ai/ha, visual rating, scale 0 (no effect) to 100 (complete control)
[9] = postemergence, 125 g ai/ha; visual rating, scale 0 (no effect) to 100 (complete control)
[10] = postemergence, 500 g ai/ha; visual rating, scale 0 (no effect) to 100 (complete control)
[11] = 125 g ai/ha, 0 = no effect, 100 = complete control, preemergence
[12] = 125 g ai/ha, visual rating, scale 0 (no effect) to 100 (complete control), postemergence
[13] = 500 g ai/ha, visual rating, 0 = no effect, 100 = complete control, preemergence
[14] = postemergence, 500 g ai/ha, scale 0 to 100, 0 is no effect, 100 is complete control

SMILES: CCNC(=O)c1cccc(NC(=O)c2cc(C(C)(C)C)nn2CC(F)(F)F)c1 [Compound 31]
- Plant response rating, Surinam Grass (Surinam grass; [2]): 60
- Surinam Grass plant response rating (Surinam grass; [3]): 60
- Plant response rating, Surinam Grass (Surinam grass; [4]): 30
- Cocklebur plant response rating (cocklebur; [5]): 80
- Plant response rating, Cocklebur (cocklebur; [2]): 90
- Cocklebur plant response rating (cocklebur; [3]): 40
- Corn plant response rating (corn; [5]): 30
- Plant response rating, Corn (corn; [2]): 30
- Corn plant response rating (corn; [3]): 20
- Foxtail, Giant plant response rating (giant foxtail; [5]): 20
- Plant response rating, Foxtail, Giant (giant foxtail; [2]): 30
- Foxtail, Giant plant response rating (giant foxtail; [3]): 90
- Plant response rating, Foxtail, Giant (giant foxtail; [4]): 60
- Lambsquarters plant response rating (lambsquarters; [5]): 90
- Plant response rating, Lambsquarters (lambsquarters; [2]): 90
- Lambsquarters plant response rating (lambsquarters; [3]): 100
- Plant response rating, Lambsquarters (lambsquarters; [4]): 90
- Morningglory plant response rating (morningglory; [5]): 30
- Plant response rating, Morningglory (morningglory; [2]): 70
- Morningglory plant response rating (morningglory; [3]): 80
- Plant response rating, Pigweed (pigweed; [2]): 90
- Pigweed plant response rating (pigweed; [3]): 100
- Plant response rating, Pigweed (pigweed; [4]): 70
- Plant response rating, Velvetleaf (velvetleaf; [2]): 50
- Velvetleaf plant response rating (velvetleaf; [3]): 90
- Plant response rating, Velvetleaf (velvetleaf; [4]): 80
- Blackgrass plant response rating (blackgrass; [5]): 0
- Plant response rating, Blackgrass (blackgrass; [2]): 50
- Plant response rating, Wheat (wheat; Postemergence, 500 g ai/ha; visual rating after 13 to 15 days, scale 0 (no effect) to 100 (complete control)): 10
- Oat, Wild plant response rating (wild oat; [5]): 20
- Plant response rating, Oat, Wild (wild oat; [2]): 30
- Rice plant response rating (rice; visual rating, 13 to 15 days): 80
- Sedge, Umbrella plant response rating ([1]; visual rating, 13 to 15 days): 50
- Ducksalad plant response rating (ducksalad; visual rating, 13 to 15 days): 80
- Barnyardgrass plant response rating (barnyardgrass; visual rating, 13 to 15 days): 80

SMILES: CCn1nc(C(C)(C)C)cc1C(=O)Nc1cccc(C(C)=O)c1 [Compound 122]
- Plant response rating, Surinam Grass (Surinam grass; [6]): 70
- Surinam Grass plant response rating (Surinam grass; [7]): 10
- Surinam Grass plant response rating (Surinam grass; [8]): 10
- Plant response rating, Surinam Grass (Surinam grass; [4]): 20
- Plant response rating, Cocklebur (cocklebur; [6]): 70
- Cocklebur plant response rating (cocklebur; [7]): 70
- Cocklebur plant response rating (cocklebur; [8]): 90
- Plant response rating, Cocklebur (cocklebur; [4]): 20
- Plant response rating, Corn (corn; [6]): 30
- Corn plant response rating (corn; [7]): 10
- Corn plant response rating (corn; [8]): 10
- Plant response rating, Corn (corn; [4]): 0
- Plant response rating, Foxtail, Giant (giant foxtail; [6]): 80
- Foxtail, Giant plant response rating (giant foxtail; [7]): 10
- Foxtail, Giant plant response rating (giant foxtail; [8]): 20
- Plant response rating, Foxtail, Giant (giant foxtail; [4]): 50
- Plant response rating, Lambsquarters (lambsquarters; [6]): 100
- Lambsquarters plant response rating (lambsquarters; [7]): 0
- Lambsquarters plant response rating (lambsquarters; [8]): 0
- Plant response rating, Lambsquarters (lambsquarters; [4]): 80
- Plant response rating, Morningglory (morningglory; [6]): 70
- Morningglory plant response rating (morningglory; [7]): 0
- Morningglory plant response rating (morningglory; [8]): 0
- Plant response rating, Morningglory (morningglory; [4]): 20
- Plant response rating, Pigweed (pigweed; [6]): 80
- Pigweed plant response rating (pigweed; [7]): 0
- Pigweed plant response rating (pigweed; [8]): 10
- Plant response rating, Pigweed (pigweed; [4]): 70
- Plant response rating, Velvetleaf (velvetleaf; [6]): 60
- Velvetleaf plant response rating (velvetleaf; [7]): 10
- Velvetleaf plant response rating (velvetleaf; [8]): 20
- Plant response rating, Velvetleaf (velvetleaf; [4]): 40
- Blackgrass plant response rating (blackgrass; [7]): 0
- Blackgrass plant response rating (blackgrass; [8]): 10
- Wheat plant response rating (wheat; [9]): 0
- Wheat plant response rating (wheat; [10]): 10
- Oat, Wild plant response rating (wild oat; [7]): 10
- Oat, Wild plant response rating (wild oat; [8]): 40
- Rice plant response rating (rice; visual rating, 13 to 15 days): 70
- Sedge, Umbrella plant response rating ([1]; visual rating, 13 to 15 days): 80
- Ducksalad plant response rating (ducksalad; visual rating, 13 to 15 days): 80
- Barnyardgrass plant response rating (barnyardgrass; visual rating, 13 to 15 days): 60

SMILES: CCn1nc(C(C)(C)C)cc1C(=O)Nc1ccc(OC)c(OC)c1 [Compound 298]
- Surinam Grass plant response rating (0 to 100 scale) (Surinam grass; [11]): 80
- Surinam Grass plant response rating (Surinam grass; [12]): 20
- Plant response rating, Surinam Grass (Surinam grass; [13]): 100
- Surinam Grass plant response rating (Surinam grass; [14]): 50
- Cocklebur plant response rating (0 to 100 scale) (cocklebur; [11]): 0
- Cocklebur plant response rating (cocklebur; [12]): 20
- Plant response rating, Cocklebur (cocklebur; [13]): 0
- Cocklebur plant response rating (cocklebur; [14]): 50
- Corn plant response rating (0 to 100 scale) (corn; [11]): 30
- Corn plant response rating (corn; [12]): 0
- Plant response rating, Corn (corn; [13]): 70
- Corn plant response rating (corn; [14]): 10
- Foxtail, Giant plant response rating (0 to 100 scale) (giant foxtail; [11]): 80
- Foxtail, Giant plant response rating (giant foxtail; [12]): 10
- Plant response rating, Foxtail, Giant (giant foxtail; [13]): 100
- Foxtail, Giant plant response rating (giant foxtail; [14]): 50
- Lambsquarters plant response rating (0 to 100 scale) (lambsquarters; [11]): 100
- Lambsquarters plant response rating (lambsquarters; [12]): 40
- Plant response rating, Lambsquarters (lambsquarters; [13]): 100
- Lambsquarters plant response rating (lambsquarters; [14]): 90
- Morningglory plant response rating (0 to 100 scale) (morningglory; [11]): 10
- Morningglory plant response rating (morningglory; [12]): 60
- Plant response rating, Morningglory (morningglory; [13]): 40
- Morningglory plant response rating (morningglory; [14]): 70
- Pigweed plant response rating (0 to 100 scale) (pigweed; [11]): 100
- Pigweed plant response rating (pigweed; [12]): 80
- Plant response rating, Pigweed (pigweed; [13]): 100
- Pigweed plant response rating (pigweed; [14]): 90
- Velvetleaf plant response rating (velvetleaf; [12]): 60
- Plant response rating, Velvetleaf (velvetleaf; [13]): 60
- Velvetleaf plant response rating (velvetleaf; [14]): 60
- Blackgrass plant response rating (blackgrass; [12]): 20
- Blackgrass plant response rating (blackgrass; [14]): 50
- Wheat plant response rating (wheat; 125 g ai/ha; visual rating, scale 0 (no effect) to 100 (complete control); postemergence): 20
- Wheat plant response rating (wheat; postemergence, 500 g ai/ha; scale 0 to 100, 0 is no effect, 100 is complete control): 30
- Oat, Wild plant response rating (wild oat; [12]): 30
- Oat, Wild plant response rating (wild oat; [14]): 40
- Rice plant response rating (rice): 80
- Sedge, Umbrella plant response rating [1]: 70
- Ducksalad plant response rating (ducksalad): 90
- Barnyardgrass plant response rating (barnyardgrass): 90

SMILES: CCNC(=O)c1ccc(F)c(NC(=O)c2cn(C(C)(C)C)nc2CC)c1 [Compound 193]
- Surinam Grass plant response rating (0 to 100 scale) (Surinam grass; [11]): 80
- Plant response rating, Surinam Grass (Surinam grass; [6]): 100
- Surinam Grass plant response rating (Surinam grass; [7]): 10
- Surinam Grass plant response rating (Surinam grass; [8]): 10
- Cocklebur plant response rating (0 to 100 scale) (cocklebur; [11]): 10
- Plant response rating, Cocklebur (cocklebur; [6]): 70
- Cocklebur plant response rating (cocklebur; [7]): 20
- Cocklebur plant response rating (cocklebur; [8]): 70
- Corn plant response rating (0 to 100 scale) (corn; [11]): 70
- Plant response rating, Corn (corn; [6]): 100
- Corn plant response rating (corn; [7]): 10
- Corn plant response rating (corn; [8]): 20
- Foxtail, Giant plant response rating (0 to 100 scale) (giant foxtail; [11]): 100
- Plant response rating, Foxtail, Giant (giant foxtail; [6]): 100
- Foxtail, Giant plant response rating (giant foxtail; [7]): 10
- Foxtail, Giant plant response rating (giant foxtail; [8]): 20
- Lambsquarters plant response rating (0 to 100 scale) (lambsquarters; [11]): 100
- Plant response rating, Lambsquarters (lambsquarters; [6]): 100
- Lambsquarters plant response rating (lambsquarters; [7]): 90
- Lambsquarters plant response rating (lambsquarters; [8]): 90
- Morningglory plant response rating (0 to 100 scale) (morningglory; [11]): 40
- Plant response rating, Morningglory (morningglory; [6]): 100
- Morningglory plant response rating (morningglory; [7]): 30
- Morningglory plant response rating (morningglory; [8]): 70
- Pigweed plant response rating (0 to 100 scale) (pigweed; [11]): 100
- Plant response rating, Pigweed (pigweed; [6]): 100
- Pigweed plant response rating (pigweed; [7]): 20
- Pigweed plant response rating (pigweed; [8]): 60
- Velvetleaf plant response rating (0 to 100 scale) (velvetleaf; [11]): 70
- Plant response rating, Velvetleaf (velvetleaf; [6]): 100
- Velvetleaf plant response rating (velvetleaf; [7]): 50
- Velvetleaf plant response rating (velvetleaf; [8]): 70
- Blackgrass plant response rating (blackgrass; [7]): 0
- Blackgrass plant response rating (blackgrass; [8]): 20
- Wheat plant response rating (wheat; [9]): 10
- Wheat plant response rating (wheat; [10]): 10
- Oat, Wild plant response rating (wild oat; [7]): 0
- Oat, Wild plant response rating (wild oat; [8]): 0
- Rice plant response rating (rice; visual rating, 13 to 15 days): 80
- Sedge, Umbrella plant response rating ([1]; visual rating, 13 to 15 days): 80
- Ducksalad plant response rating (ducksalad; visual rating, 13 to 15 days): 90
- Barnyardgrass plant response rating (barnyardgrass; visual rating, 13 to 15 days): 80
